Measurements published in US11339130B1 (Blade Therapeutics, Inc., priority 2016, dated 2022).

Experiments:
Human Calpain 1/NS1 = target: T1, Human Calpain 1/NS1 (Homo sapiens, UniProt P07384); test: Calpain inhibition continuous fluorescence (FRET) assay, Human Calpain 1/NS1; assay type: biochemical; details: read-out: Human Calpain 1/NS1 IC50
T1 sequence (P07384 1-714): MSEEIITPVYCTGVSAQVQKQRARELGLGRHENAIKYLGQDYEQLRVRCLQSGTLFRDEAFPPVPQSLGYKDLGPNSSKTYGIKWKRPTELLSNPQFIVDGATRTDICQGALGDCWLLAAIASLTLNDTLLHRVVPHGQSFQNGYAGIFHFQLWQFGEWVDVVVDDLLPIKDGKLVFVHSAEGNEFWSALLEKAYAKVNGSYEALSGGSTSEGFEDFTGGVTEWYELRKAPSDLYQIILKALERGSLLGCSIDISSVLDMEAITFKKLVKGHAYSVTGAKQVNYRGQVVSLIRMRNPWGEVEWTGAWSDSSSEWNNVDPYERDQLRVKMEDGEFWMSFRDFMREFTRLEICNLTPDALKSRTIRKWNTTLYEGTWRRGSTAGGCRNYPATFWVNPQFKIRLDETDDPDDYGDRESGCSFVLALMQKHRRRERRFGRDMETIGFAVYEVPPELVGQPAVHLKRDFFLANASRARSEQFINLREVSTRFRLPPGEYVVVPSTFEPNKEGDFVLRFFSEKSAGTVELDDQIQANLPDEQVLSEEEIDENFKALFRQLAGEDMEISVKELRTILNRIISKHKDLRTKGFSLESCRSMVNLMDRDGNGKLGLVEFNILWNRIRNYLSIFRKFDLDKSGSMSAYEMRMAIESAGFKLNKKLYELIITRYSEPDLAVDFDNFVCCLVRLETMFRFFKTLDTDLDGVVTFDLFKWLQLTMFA
T1 sequence (P04632 1-268 partner): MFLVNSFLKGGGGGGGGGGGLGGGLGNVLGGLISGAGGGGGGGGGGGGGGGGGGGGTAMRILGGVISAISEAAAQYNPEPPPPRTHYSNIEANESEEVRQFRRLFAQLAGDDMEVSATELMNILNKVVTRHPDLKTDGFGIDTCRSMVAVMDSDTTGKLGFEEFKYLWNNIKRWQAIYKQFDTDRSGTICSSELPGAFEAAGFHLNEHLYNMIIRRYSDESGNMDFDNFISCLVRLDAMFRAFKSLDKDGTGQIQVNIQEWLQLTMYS
Procedure, shortened: (§1)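 Buffer 50 mM Tris pH 7.5/100 mM NaCl/1 mM DTT; enzyme + cpd preinc 25C; start w/ FRET substrate + CaCl2; kinetic 490/520 nm, 10 min; slopes 1-5 min; 4-PL IC50.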

Human Calpain 2/NS1 = target: T2, Human Calpain 2/NS1 (Homo sapiens, UniProt P17655); test: Calpain inhibition continuous fluorescence (FRET) assay, Human Calpain 2/NS1; assay type: biochemical; details: read-out: Human Calpain 2/NS1 IC50
T2 sequence (P17655 1-700): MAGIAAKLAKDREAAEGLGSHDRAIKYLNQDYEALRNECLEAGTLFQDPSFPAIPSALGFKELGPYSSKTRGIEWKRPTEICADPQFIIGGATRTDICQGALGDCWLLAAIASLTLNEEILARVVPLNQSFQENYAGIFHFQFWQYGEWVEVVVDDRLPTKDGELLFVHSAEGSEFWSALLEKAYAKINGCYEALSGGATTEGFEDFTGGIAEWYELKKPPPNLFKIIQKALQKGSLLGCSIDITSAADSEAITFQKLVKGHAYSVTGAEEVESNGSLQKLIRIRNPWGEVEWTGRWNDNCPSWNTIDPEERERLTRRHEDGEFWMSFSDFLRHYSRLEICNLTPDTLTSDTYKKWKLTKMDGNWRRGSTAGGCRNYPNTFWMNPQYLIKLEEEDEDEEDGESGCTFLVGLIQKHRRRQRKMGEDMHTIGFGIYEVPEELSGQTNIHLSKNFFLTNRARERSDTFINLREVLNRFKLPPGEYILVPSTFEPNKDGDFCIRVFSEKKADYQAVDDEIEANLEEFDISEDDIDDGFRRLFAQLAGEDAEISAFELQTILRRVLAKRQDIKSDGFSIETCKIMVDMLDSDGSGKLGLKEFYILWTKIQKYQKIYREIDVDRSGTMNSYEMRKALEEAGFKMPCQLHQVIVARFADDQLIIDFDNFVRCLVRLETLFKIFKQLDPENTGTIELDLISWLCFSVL
T2 sequence (P04632 1-268 partner): T1 sequence (P04632 1-268 partner)
Procedure, shortened: as §1

Human Calpain 9/NS1 = target: T3, Human Calpain 9/NS1 (Homo sapiens, UniProt O14815); test: Calpain inhibition continuous fluorescence (FRET) assay, Human Calpain 9/NS1; assay type: biochemical; details: read-out: Human Calpain 9/NS1 IC50
T3 sequence (O14815 1-690): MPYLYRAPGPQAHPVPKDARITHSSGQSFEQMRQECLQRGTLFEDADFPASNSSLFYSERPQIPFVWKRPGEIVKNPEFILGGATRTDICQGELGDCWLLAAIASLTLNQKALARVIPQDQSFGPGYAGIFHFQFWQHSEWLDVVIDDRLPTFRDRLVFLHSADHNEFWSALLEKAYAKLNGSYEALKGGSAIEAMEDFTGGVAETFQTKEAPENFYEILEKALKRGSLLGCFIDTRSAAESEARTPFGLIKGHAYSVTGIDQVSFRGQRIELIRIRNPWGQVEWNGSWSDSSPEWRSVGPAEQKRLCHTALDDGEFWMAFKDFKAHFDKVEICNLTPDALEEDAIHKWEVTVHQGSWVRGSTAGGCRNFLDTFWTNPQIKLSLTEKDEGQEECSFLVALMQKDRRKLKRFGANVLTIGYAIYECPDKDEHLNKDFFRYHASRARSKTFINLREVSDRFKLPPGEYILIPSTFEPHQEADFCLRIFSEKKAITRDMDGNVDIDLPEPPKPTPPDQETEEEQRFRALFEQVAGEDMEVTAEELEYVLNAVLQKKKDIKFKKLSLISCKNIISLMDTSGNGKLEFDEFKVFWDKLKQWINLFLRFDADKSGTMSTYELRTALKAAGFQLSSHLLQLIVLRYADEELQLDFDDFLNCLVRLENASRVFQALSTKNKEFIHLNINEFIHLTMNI
T3 sequence (P04632 1-268 partner): T1 sequence (P04632 1-268 partner)
Procedure, shortened: as §1

[1] = system: Calpain activity in SH-SY5Y cells (SBDP-150); test: SH-SY5Y Spectrin western blot assay (SBDP-150 breakdown product, A23187-induced); assay type: cell-based; details: Homo sapiens; SH-SY5Y cells, A23187-induced SBDP-150, western blot; read-out: SH-SY5Y Spectrin IC50
[2] = system: Calpain activity in SH-SY5Y cells; test: SH-SY5Y + AMC fluorescence assay (Suc-LLVY-AMC substrate); assay type: cell-based; details: read-out: SH-SY5Y + AMC IC50

SMILES	IC50 (Human Calpain 1/NS1) [µM]	IC50 (Human Calpain 2/NS1) [µM]	IC50 (Human Calpain 9/NS1) [µM]	IC50 [1] [µM]	IC50 [2] [µM]
NC(=O)C(=O)C(Cc1ccccc1)NC(=O)c1cn(C(F)F)nc1-c1cccc2ncccc12 (stereo not drawn) [Compound 576, N-(4-amino-3,4-dioxo-1-phenylbutan-2-yl)-1-(difluoromethyl)-3-(quinolin-5-yl)-1H-pyrazole-4-carboxamide]	< 3	< 3	< 3	< 10	< 10
NC(=O)C(=O)C(Cc1ccccc1)NC(=O)c1cn(C(F)F)nc1-c1ccc2cnccc2c1 (stereo not drawn) [Compound 577, N-(4-amino-3,4-dioxo-1-phenylbutan-2-yl)-1-(difluoromethyl)-3-(isoquinolin-6-yl)-1H-pyrazole-4-carboxamide]	< 3	< 3	< 3	< 10	< 10
NC(=O)C(=O)C(Cc1ccccc1)NC(=O)c1nsnc1-c1cccc2c1OC(F)(F)O2 (stereo not drawn) [Compound 578, N-(4-amino-3,4-dioxo-1-phenylbutan-2-yl)-4-(2,2-difluorobenzo[d][1,3]dioxol-4-yl)-1,2,5-thiadiazole-3-carboxamide]	< 3	< 3	< 3	< 10	< 10
Cn1cc(C(=O)NC(C(=O)C(N)=O)c2ccc3ccccc3c2)c(-c2ccccc2F)n1 (stereo not drawn) [Compound 579, N-(3-amino-1-(naphthalen-2-yl)-2,3-dioxopropyl)-3-(2-fluorophenyl)-1-methyl-1H-pyrazole-4-carboxamide]	< 3	< 3	< 3	> 25	< 10
Cn1cc(C(=O)NC(Cc2cc(F)cc(F)c2)C(=O)C(N)=O)c(-c2ccccc2F)n1 (stereo not drawn) [Compound 580, N-(4-amino-1-(3,5-difluorophenyl)-3,4-dioxobutan-2-yl)-3-(2-fluorophenyl)-1-methyl-1H-pyrazole-4-carboxamide]	< 3	< 3	< 3	10 to 25	< 10
NC(=O)C(=O)C(Cc1ccccc1)NC(=O)c1cn(C(F)F)nc1-c1cnccn1 (stereo not drawn) [Compound 581, N-(4-amino-3,4-dioxo-1-phenylbutan-2-yl)-1-(difluoromethyl)-3-(pyrazin-2-yl)-1H-pyrazole-4-carboxamide]	< 3	< 3	< 3	> 25	10 to 25
Cc1cncc(-c2nn(C(F)F)cc2C(=O)NC(Cc2ccccc2)C(=O)C(N)=O)c1 (stereo not drawn) [Compound 582, N-(4-amino-3,4-dioxo-1-phenylbutan-2-yl)-1-(difluoromethyl)-3-(5-methylpyridin-3-yl)-1H-pyrazole-4-carboxamide]	< 3	< 3	< 3	< 10	10 to 25
Cc1c(C(=O)NC(Cc2ccccc2)C(=O)C(N)=O)c(-c2ccccc2)nn1C (stereo not drawn) [Compound 583]	< 3	< 3	< 3	> 25	> 25
Cc1cccc(-c2oncc2C(=O)NC(Cc2ccccc2)C(=O)C(N)=O)c1F (stereo not drawn) [Compound 584, N-(4-amino-3,4-dioxo-1-phenylbutan-2-yl)-5-(2-fluoro-3-methylphenyl)isoxazole-4-carboxamide]	< 3	< 3	< 3	< 10	10 to 25
NC(=O)C(=O)C(Cc1ccccc1)NC(=O)c1cn(C(F)F)nc1-c1cncc(F)c1 (stereo not drawn) [Compound 586, N-(4-amino-3,4-dioxo-1-phenylbutan-2-yl)-1-(difluoromethyl)-3-(5-fluoropyridin-3-yl)-1H-pyrazole-4-carboxamide]	< 3	< 3	< 3	10 to 25	10 to 25
Cn1cc(C(=O)NC(Cc2ccccc2)C(=O)C(N)=O)c(-c2ccc3ccccc3n2)n1 (stereo not drawn) [Compound 587, N-(4-amino-3,4-dioxo-1-phenylbutan-2-yl)-1-methyl-3-(quinolin-2-yl)-1H-pyrazole-4-carboxamide]	< 3	< 3	3 to 10	> 25	> 25
NC(=O)C(=O)C(Cc1ccccc1)NC(=O)c1cn(C(F)F)nc1-c1ccc2ccccc2n1 (stereo not drawn) [Compound 588, N-(4-amino-3,4-dioxo-1-phenylbutan-2-yl)-1-(difluoromethyl)-3-(quinolin-2-yl)-1H-pyrazole-4-carboxamide]	< 3	< 3	< 3	10 to 25	> 25
Cn1cc(C(=O)NC(Cc2ccccc2)C(=O)C(N)=O)c(-c2cncc3ccccc23)n1 (stereo not drawn) [Compound 591, N-(4-amino-3,4-dioxo-1-phenylbutan-2-yl)-3-(isoquinolin-4-yl)-1-methyl-1 h-pyrazole-4-carboxamide]	< 3	< 3	< 3	> 25	> 25
Cc1nc(-c2ccccc2F)c(C(=O)N[C@H](Cc2ccccc2)C(=O)C(N)=O)o1 [Compound 592, (R)—N-(4-amino-3,4-dioxo-1-phenylbutan-2-yl)-4-(2-fluorophenyl)-2-methyloxazole-5-carboxamide]	< 3	< 3	< 3	10 to 25	< 10
Cn1cc(C(=O)NC(Cc2ccccc2)C(=O)C(N)=O)c(-c2ccc3ncccc3c2)n1 (stereo not drawn) [Compound 593, N-(4-amino-3,4-dioxo-1-phenylbutan-2-yl)-1-methyl-3-(quinolin-6-yl)-1H-pyrazole-4-carboxamide]	< 3	< 3	< 3	> 25	> 25
